One substance from US20140227375A1, “PIP-2 Inhibition-Based Antiviral and Anti-Hyperlipidemic Therapies” (priority 2008, published 2014) can be followed below.

pEC50: −log10 of the molar value.

The target of the assay is HCV replication. The assay is described as follows: Luciferase reporter-linked transient HCV replication assay (FL-J6/JFH-5′C19Rluc2AUbi RNA). The format is cell-based, hepatitis C virus (HCV). How it is done:
FIGS. 7A-7B. A PIP-2 ligand inhibits HCV replication in a dose-dependent manner. Luciferase reporter-linked HCV replication assay. Huh 7.5 cells were electroporated with 10 ug of in vitro-transcribed wild type, FL-J6/JFH-5′C19Rluc2AUbi RNAs. Electroporated cells were treated with […] of neomyin. Renilla luciferase activities were measured at 5 days after electroporation. Alamar blue assays were performed to compare relative cell viabilities.
The NS5A PIP2 interaction is amenable to pharmacologic disruption. […] Such inhibitors represent a valuable new class of anti-HCV agents to be included in future therapeutic cocktails designed to maximize efficiency of, and minimize resistance to, therapies for treating hepatitis C.
The electroporated cells were diluted in 18 ml of cell culture medium. 1 ml of cells was aliquoted in 6 well tissue culture plates. Electroporated cells were treated with 0, 172, 345, 689, 1378, and 2756 μM of neomyin for 5 days. Renilla luciferase activities were measured by using renilla luciferase kit from Promega (Madison, Wis.).

For neomycin, the pEC50 (Renilla luciferase activity 5 days after electroporation, read-out: EC50 against HCV replication) was 3.70. The “inhibition of HCV genome replication” value (increasing concentrations of neomycin (0-2756 μM), 5 days) is “dose-dependent increase in inhibition of HCV genome replication”.
